Assay results reported in US8598365B2, “Herbicides” (Syngenta Limited, priority 2007, dated 2013).

test system: Alopecurus myosuroides (ALOMY); test: Example B pre-emergence herbicidal activity; assay type: in vivo; settings: 312 h, rate 250 g/ha, evaluated after 13 days, read-out: Pre-Emergence Activity ALOMY (100=total damage to plant; 0=no damage to plant)
Protocol: (§1) Seeds of a variety of test species were sown in standard soil in pots. After cultivation for one day (pre-emergence) or after 8 days cultivation (post-emergence) under controlled conditions in a glasshouse (at 24/16° C., day/night; 14 hours light; 65% humidity), the plants were sprayed with an aqueous spray solution derived from the formulation of the technical active ingredient in acetone/water (50:50) solution containing 0.5% Tween 20 (polyoxyethelyene sorbitan monolaurate, CAS RN 9005-64-5).
(§2) The test plants were then grown in a glasshouse under controlled conditions in a glasshouse (at 24/16° C., day/night; 14 hours light; 65% humidity) and watered twice daily. After 13 days for pre and post-emergence, the test was evaluated (100=total damage to plant; 0=no damage to plant).
(§3) Alopecurus myosuroides (ALOMY), Avena fatua (AVEFA), Setaria faberi (SETFA), Echinochloa crus-galli (ECHCG), Solanum nigrum (SOLNI) and Amaranthus retoflexus (AMARE)

| Structure (SMILES) | pest or weed control at 250 g/ha |
| --- | --- |
| Cc1sc(-c2ccc3c(c2)OCCO3)nc1C1C(=O)[C@@H]2CC[C@@H](C2)C1=O (stereo partly drawn) [Compound T64] | 20% |
| Cc1cnc(-c2ccc(Cl)cc2)nc1C1C(=O)[C@@H]2CC[C@@H](C2)C1=O (stereo partly drawn) [Compound T88] | 0% |
| CCc1sc(-c2ccc(C)cc2)nc1C1C(=O)[C@@H]2CC[C@@H](C2)C1=O (stereo partly drawn) [Compound T54] | 90% |

test system: Amaranthus retoflexus (AMARE); test: Example B pre-emergence herbicidal activity; assay type: in vivo; settings: Amaranthus retroflexus, 312 h, rate 250 g/ha, evaluated after 13 days, read-out: Pre-Emergence Activity AMARE (100=total damage to plant; 0=no damage to plant)
Protocol: as §1, §2, §3

| Structure (SMILES) | pest or weed control at 250 g/ha |
| --- | --- |
| Cc1sc(-c2ccc3c(c2)OCCO3)nc1C1C(=O)[C@@H]2CC[C@@H](C2)C1=O (stereo partly drawn) [Compound T64] | 0% |
| Cc1cnc(-c2ccc(Cl)cc2)nc1C1C(=O)[C@@H]2CC[C@@H](C2)C1=O (stereo partly drawn) [Compound T88] | 0% |
| CCc1sc(-c2ccc(C)cc2)nc1C1C(=O)[C@@H]2CC[C@@H](C2)C1=O (stereo partly drawn) [Compound T54] | 0% |

test system: Avena fatua (AVEFA); test: Example B pre-emergence herbicidal activity; assay type: in vivo; settings: 312 h, rate 250 g/ha, evaluated after 13 days, read-out: Pre-Emergence Activity AVEFA (100=total damage to plant; 0=no damage to plant)
Protocol: as §1, §2, §3

| Structure (SMILES) | pest or weed control at 250 g/ha |
| --- | --- |
| Cc1sc(-c2ccc3c(c2)OCCO3)nc1C1C(=O)[C@@H]2CC[C@@H](C2)C1=O (stereo partly drawn) [Compound T64] | 0% |
| Cc1cnc(-c2ccc(Cl)cc2)nc1C1C(=O)[C@@H]2CC[C@@H](C2)C1=O (stereo partly drawn) [Compound T88] | 0% |
| CCc1sc(-c2ccc(C)cc2)nc1C1C(=O)[C@@H]2CC[C@@H](C2)C1=O (stereo partly drawn) [Compound T54] | 70% |

test system: Echinochloa crus-galli (ECHCG); test: Example B pre-emergence herbicidal activity; assay type: in vivo; settings: 312 h, rate 250 g/ha, evaluated after 13 days, read-out: Pre-Emergence Activity ECHCG (100=total damage to plant; 0=no damage to plant)
Protocol: as §1, §2, §3

| Structure (SMILES) | pest or weed control at 250 g/ha |
| --- | --- |
| Cc1sc(-c2ccc3c(c2)OCCO3)nc1C1C(=O)[C@@H]2CC[C@@H](C2)C1=O (stereo partly drawn) [Compound T64] | 0% |
| Cc1cnc(-c2ccc(Cl)cc2)nc1C1C(=O)[C@@H]2CC[C@@H](C2)C1=O (stereo partly drawn) [Compound T88] | 60% |
| CCc1sc(-c2ccc(C)cc2)nc1C1C(=O)[C@@H]2CC[C@@H](C2)C1=O (stereo partly drawn) [Compound T54] | 100% |

test system: Setaria faberi (SETFA); test: Example B pre-emergence herbicidal activity; assay type: in vivo; settings: 312 h, rate 250 g/ha, evaluated after 13 days, read-out: Pre-Emergence Activity SETFA (100=total damage to plant; 0=no damage to plant)
Protocol: as §1, §2, §3

| Structure (SMILES) | pest or weed control at 250 g/ha |
| --- | --- |
| Cc1sc(-c2ccc3c(c2)OCCO3)nc1C1C(=O)[C@@H]2CC[C@@H](C2)C1=O (stereo partly drawn) [Compound T64] | 0% |
| Cc1cnc(-c2ccc(Cl)cc2)nc1C1C(=O)[C@@H]2CC[C@@H](C2)C1=O (stereo partly drawn) [Compound T88] | 80% |
| CCc1sc(-c2ccc(C)cc2)nc1C1C(=O)[C@@H]2CC[C@@H](C2)C1=O (stereo partly drawn) [Compound T54] | 60% |

test system: Alopecurus myosuroides (ALOMY); test: Example B post-emergence herbicidal activity; assay type: in vivo; settings: 312 h, rate 250 g/ha, evaluated after 13 days, read-out: Post-emergence activity ALOMY (100=total damage to plant; 0=no damage to plant)
Protocol: as §1, §2, §3

| Structure (SMILES) | pest or weed control at 250 g/ha |
| --- | --- |
| Cc1sc(-c2ccc3c(c2)OCCO3)nc1C1C(=O)[C@@H]2CC[C@@H](C2)C1=O (stereo partly drawn) [Compound T64] | 0% |
| Cc1cnc(-c2ccc(Cl)cc2)nc1C1C(=O)[C@@H]2CC[C@@H](C2)C1=O (stereo partly drawn) [Compound T88] | 10% |
| CCc1sc(-c2ccc(C)cc2)nc1C1C(=O)[C@@H]2CC[C@@H](C2)C1=O (stereo partly drawn) [Compound T54] | 100% |

test system: Amaranthus retoflexus (AMARE); test: Example B post-emergence herbicidal activity; assay type: in vivo; settings: Amaranthus retroflexus, 312 h, rate 250 g/ha, evaluated after 13 days, read-out: Post-emergence activity AMARE (100=total damage to plant; 0=no damage to plant)
Protocol: as §1, §2, §3

| Structure (SMILES) | pest or weed control at 250 g/ha |
| --- | --- |
| Cc1sc(-c2ccc3c(c2)OCCO3)nc1C1C(=O)[C@@H]2CC[C@@H](C2)C1=O (stereo partly drawn) [Compound T64] | 0% |
| Cc1cnc(-c2ccc(Cl)cc2)nc1C1C(=O)[C@@H]2CC[C@@H](C2)C1=O (stereo partly drawn) [Compound T88] | 0% |
| CCc1sc(-c2ccc(C)cc2)nc1C1C(=O)[C@@H]2CC[C@@H](C2)C1=O (stereo partly drawn) [Compound T54] | 30% |

test system: Avena fatua (AVEFA); test: Example B post-emergence herbicidal activity; assay type: in vivo; settings: 312 h, rate 250 g/ha, evaluated after 13 days, read-out: Post-emergence activity AVEFA (100=total damage to plant; 0=no damage to plant)
Protocol: as §1, §2, §3

| Structure (SMILES) | pest or weed control at 250 g/ha |
| --- | --- |
| Cc1sc(-c2ccc3c(c2)OCCO3)nc1C1C(=O)[C@@H]2CC[C@@H](C2)C1=O (stereo partly drawn) [Compound T64] | 0% |
| Cc1cnc(-c2ccc(Cl)cc2)nc1C1C(=O)[C@@H]2CC[C@@H](C2)C1=O (stereo partly drawn) [Compound T88] | 0% |
| CCc1sc(-c2ccc(C)cc2)nc1C1C(=O)[C@@H]2CC[C@@H](C2)C1=O (stereo partly drawn) [Compound T54] | 90% |

test system: Echinochloa crus-galli (ECHCG); test: Example B post-emergence herbicidal activity; assay type: in vivo; settings: 312 h, rate 250 g/ha, evaluated after 13 days, read-out: Post-emergence activity ECHCG (100=total damage to plant; 0=no damage to plant)
Protocol: as §1, §2, §3

| Structure (SMILES) | pest or weed control at 250 g/ha |
| --- | --- |
| Cc1sc(-c2ccc3c(c2)OCCO3)nc1C1C(=O)[C@@H]2CC[C@@H](C2)C1=O (stereo partly drawn) [Compound T64] | 50% |
| Cc1cnc(-c2ccc(Cl)cc2)nc1C1C(=O)[C@@H]2CC[C@@H](C2)C1=O (stereo partly drawn) [Compound T88] | 90% |
| CCc1sc(-c2ccc(C)cc2)nc1C1C(=O)[C@@H]2CC[C@@H](C2)C1=O (stereo partly drawn) [Compound T54] | 100% |

test system: Setaria faberi (SETFA); test: Example B post-emergence herbicidal activity; assay type: in vivo; settings: 312 h, rate 250 g/ha, evaluated after 13 days, read-out: Post-emergence activity SETFA (100=total damage to plant; 0=no damage to plant)
Protocol: as §1, §2, §3

| Structure (SMILES) | pest or weed control at 250 g/ha |
| --- | --- |
| Cc1sc(-c2ccc3c(c2)OCCO3)nc1C1C(=O)[C@@H]2CC[C@@H](C2)C1=O (stereo partly drawn) [Compound T64] | 70% |
| Cc1cnc(-c2ccc(Cl)cc2)nc1C1C(=O)[C@@H]2CC[C@@H](C2)C1=O (stereo partly drawn) [Compound T88] | 70% |
| CCc1sc(-c2ccc(C)cc2)nc1C1C(=O)[C@@H]2CC[C@@H](C2)C1=O (stereo partly drawn) [Compound T54] | 100% |
